What was measured:
[1] = tested on: J774A.1 macrophages; assay: Cholesterol depletion and estimation (Amplex Red cholesterol assay kit); format: cell-based, murine
Protocol: (§1) Cells and cell culture. A murine macrophage cell line J774A.1 (American Type Culture Collection, Rockville, Md.) was used. The cells were maintained at 37° C. in RPMI-1640 medium containing 10% heat inactivated fetal calf serum (FCS)(Biological Industries, Israel) in a CO2 incubator (5% CO2) as described previously^10. The macrophages were seeded onto tissue culture plates (60 mm) at a density of 1×10^5 cells/plate and grown for 48 hrs before use.
(§2) Cholesterol depletion and estimation. J774A.1 cells grown on culture dishes were depleted of cholesterol by incubating for 30 min with 5 or 10 mM methyl-β-cyclodextrin (Sigma) at 37° C. in serum free medium^13,23. Total cellular cholesterol was estimated using Amplex Red cholesterol assay kit^27 (Molecular Probes). Cholesterol values were normalized to protein levels estimated using BCA assay reagent kit^28 (Pierce).

[2] = tested on: Leishmania donovani strain AG83; assay: Intracellular amastigote count in infected macrophages by Giemsa staining; format: cell-based; conditions: J774A.1 macrophages
Protocol: as §1
(§3) Parasite culture. Leishmania donovani strain AG83 (MHOM/IN/1983/AG83) promastigotes were maintained at 24° C. in modified M-199 medium (Gibco/BRL) supplemented with 100 units/ml penicillin (Sigma, U.S.A.), 100 µg/ml streptomycin (Sigma, U.S.A.), and 10% heat inactivated FCS.
as §2
Infecting macrophages with Leishmania. Promastigotes were added onto the macrophage monolayers (both control and cholesterol-depleted) at a parasite: macrophage ratio of 10:1. The parasite-macrophage interaction was allowed to progress for 15, 30 and 90 min at 37° C. At the end of incubation, monolayers were washed with phosphate buffered saline (PBS) to remove free parasites and placed on ice to loosen adherent cells from the plates. The monolayers were gently scraped to resuspend the macrophage-parasite complexes and the resulting cell suspension was analyzed either for radiolabel incorporation or macrophage-associated fluorescence. The percentage of infected macrophages was >95% after 3 hr with 5–8 amastigotes per macrophage as determined by Giemsa staining.

[3] = tested on: Leishmania donovani strain AG83; assay: Flow cytometric analysis of binding of FITC-labeled promastigotes to macrophages; format: cell-based; conditions: 10 mM, J774A.1 macrophages, parasite:macrophage 10:1, especially after 90 min
Protocol: as §1, §3
(§4) Cholesterol depletion and estimation. […]
(§5) Infecting macrophages with Leishmania. […] The monolayers were gently scraped to resuspend the macrophage-parasite complexes and the resulting cell suspension was analyzed either for radiolabel incorporation or macrophage-associated fluorescence. The percentage of infected macrophages was >95% after 3 hr with 5–8 amastigotes per macrophage as determined by Giemsa staining.
(§6) Labeling L. donovani AG83 promastigotes with tritium or FITC for binding studies. […] The fluorescence from the FITC-labeled parasites associated with the macrophages was analyzed with a Beckman Coulter ELITE ESP flow cytometer (Miami, Fla.) using EXPO 32 software.

[4] = tested on: Leishmania donovani strain AG83; assay: Ligand binding assay of [3H]thymidine labeled promastigotes to macrophages; format: cell-based; conditions: 10 mM, J774A.1 macrophages, parasite:macrophage 10:1, assayed till 90 min
Protocol: as §1, §3, §4, §5, §6

## methyl-β-cyclodextrin
[1]; 10 mM, 30 min incubation, total cellular cholesterol
  reduction of cellular cholesterol: ~40%
[1]; 5 or 10 mM
  total cellular cholesterol upon treatment (FIG. 1): concentration-dependent reduction
[2]; 5 mM, multiplicity of infection 10:1, 3 hr
  number of amastigotes present compared to control cells: concomitant reduction in the number of amastigotes
[2]; 10 mM
  amastigotes present compared to control cells: 50%
[2]; 10 mM, multiplicity of infection 10:1, 3 hr
  reduction in the number of intracellular amastigotes: ~50%
[3]
  fluorescence associated with cholesterol-depleted macrophages compared to control (FIG. 3): pronounced reduction in fluorescence
[4]
  reduction in macrophage-parasite interaction (attachment) compared to control cells: ~45%

From patent US7186702B2, “Method of treating leishmaniasis using methyl-beta-cyclodextrin” (priority 2002, dated 2007)
